The results in this text go back to patent US7625917B2, “Thiolesters and uses thereof” (priority 1998, dated 2009).

Structures are written as SMILES. Read-outs that look alike come from different tables or passages of the source.

The test system of series [1] is CEM-SS cells. Nature of the series: cells. The series is classed as cell-based. The following applies: for cellular toxicity (in words): high test dose of 316 μM. Here is the method:
Agents Chemother. […] Briefly, cells are infected with HIV-1 RF (or other virus to be tested) in the presence of various dilutions of test compounds (thiolesters and controls). The cultures are incubated for seven days. […] The cell death is measured by XTT dye reduction. XTT is a soluble tetrazolium dye that measures mitochondrial energy output, similar to MTT. Positive controls using dextran sulfate (an attachment inhibitor) or 3′-Azido-2′-3′-dideoxythymidine, AZT (a reverse transcriptase inhibitor) are added to each assay. Individual assays are done in duplicate using a sister plate method.

Series [2] relates to HIV-1RF. The series is described as follows: XTT cytoprotection assay (antiviral activity). The series is classed as cell-based. An excerpt: One exemplary means to determine antiviral activity is with CEM-SS cells and virus (e.g., HIV-1RF) (MOI=0.01) using the XTT (2,3-bis[2-methoxy-4-nitro-5-sulfophenyl]-5-[(phenylamino)carbonyl]-2H-tetrazolium hydroxide) cytoprotection assay, as described by Rice (1993) PNAS 90:9721-9724, and Rice (1997) Antimicrob. Agents Chemother. 41:419-426. Briefly, cells are infected with HIV-1 RF (or other virus to be tested) in the presence of various dilutions of test compounds (thiolesters and controls). The cultures are incubated for seven days. During this time control cultures without protective compounds (i.e., compounds with anti-viral activity) replicate virus, induce syncytia, and result in about 90% cell death. The cell death is measured by XTT dye reduction. XTT is a soluble tetrazolium dye that measures mitochondrial energy output, similar to MTT. Positive controls using dextran sulfate (an attachment inhibitor) or 3′-Azido-2′-3′-dideoxythymidine, AZT (a reverse transcriptase inhibitor) are added to each assay. Individual assays are done in duplicate using a sister plate method.
Effective antiviral concentrations providing 50% cytoprotection (EC50), and cellular growth inhibitory concentrations causing 50% cytotoxicity (IC50) are calculated.
(Formazan colour is commonly taken as a measure of viable cells.)

The target in series [3] is T1, recombinant HIV-1 NCp7 protein (Human immunodeficiency virus type 1 group M subtype B, UniProt P03347).
T1 construct: recombinant HIV-1 NCp7 protein
The series is described as follows: Trp37 zinc finger fluorescence (zinc ejection) assay. It is filed as biochemical. The procedure:
Zinc finger reactivity was measured using a Zn specific fluorochrome, TSQ, N-(6-methoxy-8-quinolyl)-p-toluenesulfonamide, assay or a Trp37 zinc finger fluorescence assay. Fluorescent measurements of the Trp37 residue in the C-terminal finger of recombinant HIV-1 NCp7 protein were performed as described by Rice (1995) Science 270:1194-1197; Rice (1997) Antimicrob. Agents Chemother. 41:419-426. Measurement of Zn ejection from both fingers was measured using the Zn-selective fluorchrome probe TSQ (Molecular Probes, Eugene Oreg.) as described by Rice (1996) J. Med. Chem 39:3606-3616. […] Briefly, 50 nM NCp7 was treated with test compounds for 1 hour at RT in […] buffer containing 10% glycerol and 50 mM Tris-HCl (pH 7.5). Labeled oligomer (0.1 picomole, end labeled [^32P] was added in an equal volume of buffer containing 10% glycerol, 50 mM Tris-HCl (pH 7.5), 400 mM KCl and 40 mM MgCl2. The reaction was continued for 15 min at room temperature, and a total of […] (or ¼ of the total reaction volume) was separated on nondenaturing 4.5% polyacrylamide gels in 0.5× Tris-Borate electrophoresis buffer. NCp7-oligomer complexes were visualized by autoradiography.
Changes in the intrinsic fluorescence of aromatic protein moieties are commonly used to monitor a reaction which involves a change in protein conformation. In the present invention, fluorescence can be used to monitor the loss of metal ion from a zinc finger, e.g., the loss of zinc from a CCHC retroviral zinc finger protein, after contact with a thiolester of the invention. The intrinsic fluorescence of Trp37 in the second zinc finger of HIV-1 NC protein has been used to monitor nucleic acid binding and conformation of the zinc finger complex (see, Summers (1992) supra).
Zinc ejection is measured by the ability of compounds to chemically attack the cysteines in purified NCp7 protein resulting in a loss of fluorescence due to the. movement of the tryptophan 37 residue […] position on the protein. Zinc ejection is measured and expressed as either percent decrease in total fluorescence or decrease in relative fluorescence units per min during a 30 min assay (RFU/min). A thiolester is considered within the scope of the invention if any amount of zinc ejection is detected.

[4] abbreviates: Table 3, 50% cytotoxicity, read-out: IC50.
Setting [5] is: read-out: EC50 (concentration inhibiting 50% virus replication).
The mark [6] stands for this setting: Table 3, average decrease in relative fluorescence.

`NS(=O)(=O)c1ccc(CNC(=O)c2ccccc2SSc2ccccc2C(=O)NCc2ccc(S(N)(=O)=O)cc2)cc1` [Compound 23 D, N,N′-(2,2′-dithiodibenzoyl)-bis-4-(aminomethyl)benzene-sulfonanide]: the IC50 in series [1] (read-out: toxicity / IC50) was 19.4 µM. In addition, the EC50 in series [2] (Table 2, read-out: EC50) is 0.33 µM. Moreover, the “zinc finger reactivity / zinc ejection rate” value in series [3] is given as 3.3 RFU/min.
Turning to `NS(=O)(=O)c1ccc(NC(=O)CNC(=O)c2ccccc2SSc2ccccc2C(=O)NCC(=O)Nc2ccc(S(N)(=O)=O)cc2)cc1` [Compound 25 D, N,N′-(2,2′-dithiodibenzoyl)-bis-4-(glycinamido)benzenesulfonamide], the IC50 in series [1] (Table 2, 50% cytotoxicity, read-out: IC50) came to 17.6 µM. Also, in series [2] (Table 2, read-out: EC50), the EC50 amounted to 1.6 µM. Besides, in series [3], the “zinc finger reactivity / zinc ejection rate” value is 7.9 RFU/min.
As for `Nc1ccc(S(=O)(=O)c2ccc(NC(=O)c3ccccc3SSc3ccccc3C(=O)Nc3ccc(S(=O)(=O)c4ccc(N)cc4)cc3)cc2)cc1` [Compound 26 D], in series [1] (setting [4]), the IC50 was below 316 µM. Also, the EC50 came to 4.3 µM in series [2] (Table 3, read-out: EC50) and 4.3 µM in series [2] (setting [5]). Moreover, in series [3], the “zinc finger reactivity / zinc ejection rate” value is listed as 3.3 RFU/min. Also, the “Zinc Finger Reactivity RFU/min” value in series [3] (setting [6]) came to 3.3 RFU/min.
On to `CC(=O)Nc1ccc(S(=O)(=O)c2ccc(NC(=O)c3ccccc3SSc3ccccc3C(=O)Nc3ccc(S(=O)(=O)c4ccc(NC(C)=O)cc4)cc3)cc2)cc1` [Compound 27 D], for which the IC50 in series [1] (read-out: toxicity / IC50) was determined as 160 µM. For the same compound, the EC50 in series [2] (Table 3, read-out: EC50) worked out at 1.5 µM; in series [2] (setting [5]) it was 1.5 µM. Besides, the “zinc finger reactivity / zinc ejection rate” value in series [3] came to 5.9 RFU/min. Also, in series [3] (setting [6]), the “Zinc Finger Reactivity RFU/min” value is listed as 5.9 RFU/min.
For the compound `CC(=O)Nc1ccc(S(=O)(=O)Nc2ccc(S(=O)(=O)c3ccc(-n4sc5ccccc5c4=O)cc3)cc2)cc1` [Compound 28 BITA], the IC50 in series [1] (setting [4]) is 188 µM. The EC50 in series [2] (Table 3, read-out: EC50) came to 9.6 µM. Further, in series [3] (setting [6]), the “Zinc Finger Reactivity RFU/min” value came to 7.9 RFU/min.
The matching figures for `CC(=O)Nc1ccc(S(=O)(=O)Nc2ccc(S(=O)(=O)c3ccc(NC(=O)c4ccccc4SSc4ccccc4C(=O)Nc4ccc(S(=O)(=O)c5ccc(NS(=O)(=O)c6ccc(NC(C)=O)cc6)cc5)cc4)cc3)cc2)cc1` [Compound 28 D]: 12.7 µM, 1 µM and 5.9 RFU/min.
As for `O=c1c2ccccc2sn1-c1ccc(S(=O)(=O)c2ccc([N+](=O)[O-])cc2)cc1` [Compound 31 BITA], the IC50 in series [1] (setting [4]) was above 316 µM. For the same compound, the “antiviral activity (in words)” value in series [2] was “without antiviral activity”. For the same compound, the “Zinc Finger Reactivity RFU/min” value in series [3] (setting [6]) stood at 4.1 RFU/min.
Regarding `O=C(Nc1ccc(S(=O)(=O)c2ccc([N+](=O)[O-])cc2)cc1)c1ccccc1SSc1ccccc1C(=O)Nc1ccc(S(=O)(=O)c2ccc([N+](=O)[O-])cc2)cc1` [Compound 31 D], the IC50 in series [1] (setting [4]) was above 316 µM. Also, the “cellular toxicity (in words)” value in series [1] is “non-toxic”; in series [1] (listed as 31), “no toxicity”. Further, the “EC50 increase vs compound 26” value in series [2] amounted to 2.6 fold. Further, in series [2] (setting [5]), the EC50 was 12.2 µM. The “Zinc Finger Reactivity RFU/min” value in series [3] (setting [6]) worked out at 2.9 RFU/min.
`O=C(Nc1ccc(S(=O)(=O)c2ccc(NC(=O)c3ccccc3SSc3ccccc3C(=O)Nc3ccc(S(=O)(=O)c4ccc(NC(=O)c5ccc([N+](=O)[O-])cc5)cc4)cc3)cc2)cc1)c1ccc([N+](=O)[O-])cc1` [Compound 32 D]: the IC50 in series [1] (setting [4]) is above 316 µM. Moreover, the EC50 in series [2] (Table 3, read-out: EC50) came out at 78 µM. In addition, the “Zinc Finger Reactivity RFU/min” value in series [3] (setting [6]) is 2.9 RFU/min.
Consider `O=c1c2ccccc2sn1-c1ccc(S(=O)(=O)c2ccc(NS(=O)(=O)Cc3ccccc3[N+](=O)[O-])cc2)cc1` [Compound 34 BITA], for which the IC50 in series [1] (setting [4]) stood at 59.5 µM. The “antiviral activity (in words)” value in series [2] is reported as “significant antiviral activity”. The EC50 in series [2] (Table 3, read-out: EC50) was determined as 3.2 µM. Also, the “Zinc Finger Reactivity RFU/min” value in series [3] (setting [6]) was found to be 2 RFU/min.
Take `O=C(CCCCBr)Sc1ccccc1C(=O)Nc1ccc(S(=O)(=O)c2ccc(NS(=O)(=O)Cc3ccccc3[N+](=O)[O-])cc2)cc1` [Compound 49]: the IC50 in series [1] (Table 6, 50% cytotoxicity, read-out: IC50) is above 316 µM. Also, in series [3] (Table 6, average decrease in relative fluorescence units over 30 min), the “Zinc Finger Reactivity RFU/min” value turned out to be 1.9 RFU/min.
